What was measured:
[1] = test system: postharvest kiwifruit fruit pathogens; assay: Assays 8 and 9 overall: wound protection of ‘Hongyang’ kiwifruit (discussion); format: in vivo; settings: wounded ‘Hongyang’ kiwifruit, treatment 24 hours before pathogen
Procedure: The kiwifruit ‘Hongyang’-based screening assays (assays 8 and 9) were conducted in laboratories at the Plant and Food Research Ruakura Research Centre, Hamilton, New Zealand (PFR). PFR assays focused on wound application of YBCA5 treatment, a commercial biological control treatment and a fungicide were used as comparative controls.
Just prior to wound treatment, each fruit was wounded on the side with a sterile stainless steel spike (4 mm deep×3 mm wide) and 10 μl of each treatment suspension was pipetted into the wound and allowed to dry.
For assays 8 and 9, two sterile paper towels were placed beneath Plix cut-outs, moistened with 40 mL SDW and each fruit placed in disposable lunch boxes (Plix Extra Deep 45/45, containing five Plix fruit cut-outs to prevent fruit from moving), sealed, then placed into large (40 L) plastic bins which were closed to ensure high relative humidity for the first 24 h and incubated on the lab bench at 24° C. […] After 6 days, (Alternaria spp. Botrytis spp., Penicillium spp., Phomopsis spp., Colletotrichum spp.) and 7 days (Cryptosporiopsis spp.), the severity of fungal rot was assessed for each treatment by measuring the lesion length (mm) along the axis of the fruit. Data were expressed as the average lesion length, minus the initial width of the wound (3 mm). […]

Botrytis spp. = assay: Cherry inoculation assays 2 and 4: Botrytis spp. fruit rot of ‘Sweet Valentine’ cherries, dip treatment; format: in vivo; settings: Assay 2, cherries, cumulative after 13 days; nil 35%; not significantly reduced (P>0.05)
Procedure: Fruit-based screening assays were conducted in laboratories at the Plant and Food Research Ruakura Research Centre, Hamilton, New Zealand (PFR). PFR assays focused on dip treatment application of YBCA5 and fungicide controls.
Fruit for Monilinia fructicola and Botrytis spp. inoculation assays were carried out on sweet cherries (Prunus avium ‘Sweet Valentine’) that were picked at the harvest mature stage and sourced from the PFR Clyde Research Orchard in Central Otago on 8 Jan. 2016 for fruit based assays 1 and 2. A second harvest was carried out on 13 Jan. 2016 for fruit based assays 3 and 4.
Each cherry was then subjected to a double wash process. Wash one consisted of 10 minutes in tap water on a rotary shaker (110 rpm) followed by a five minute wash in SDW (Wash 2). […]
A Botrytis spp. culture (isolate code 09-2), which had been originally isolated from an infected kiwifruit located in the Bay of Plenty region during the 2000s, was used for the spray inoculation assays included in this section carried out on cherries. […] This stock suspension was then filtered using a 70 μm cell strainer (70 μm mesh) to remove mycelial fragments, the concentration determined using a haemocytometer and then adjusted, by dilution with SDW+Tw 80 (0.01% v/v) to a final concentration of 1×10^5 conidia/mL. […]

Compound: CC(C)NC(=O)N1CC(=O)N(c2cc(Cl)cc(Cl)c2)C1=O [iprodione]
- overall performance as wound protectant [1]: performed poorly
- incidence of Botrytis spp. fruit rot (Botrytis spp.): 22%

Reference: patent publication US12421489B2, “Biological control of plant pathogenic microorganisms” (priority 2016, dated 2025)
